Among the data in US11999727B2 (Tango Therapeutics, Inc., priority 2020, dated 2024) are IC50 and MTAP intact/deleted ratio values, retold here.

Test [1] addresses T1, PRMT5 (Homo sapiens, UniProt O14744).
T1 construct: purchased Viva (custom protein)
The experiment in a line: PRMT5 biochemical IC50 assay with SAM as cofactor. To be noted: PRMT5, SAM as cofactor; read-out: SAM IC50.

Test [2] concerns the target T1, PRMT5. The experiment in a line: PRMT5 biochemical IC50 assay with no cofactor. To be noted: PRMT5, no cofactor; read-out: No Cofactor/rel IC50. The source says: Table 1 indicates IC50 values (μM) against PRMT5 for exemplary compounds in the presence of SAM as cofactor, with no cofactor, and with MTA as cofactor, respectively (columns 4-6). […] Ki values can be calculated from the IC50 values as described in the Examples section. As detailed in the Examples section, for the assay performed in the presence of SAM, IC50=Ki×1.5 (Ki=IC50/1.5).

The target in test [3] is T1, PRMT5. Kind of test: PRMT5 biochemical IC50 assay with MTA as cofactor. To be noted: PRMT5, MTA as cofactor; read-out: MTA IC50.
Test [4] has as its system HAP1 MTAP-intact cell line. The experiment in a line: SDMA in-cell western assay, HAP1 MTAP-intact. Type of test: cell-based. To be noted: Homo sapiens, HAP1, SDMA in-cell western, HAP1 MTAP-intact; read-out: MTAP HAP1 intact IC50. The procedure, abridged: (§1)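 Readout: in-cell western detection of SDMA. Cells: HAP1 expressing endogenous MTAP and an MTAP-null HAP1 counterpart. Output: IC50.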

For test [5], the system named is HAP1 MTAP-deleted cell line. The experiment in a line: SDMA in-cell western assay, HAP1 MTAP-deleted. The test is classed as cell-based. To be noted: for IC50: Homo sapiens, HAP1, SDMA in-cell western, HAP1 MTAP-deleted, read-out: HAP 1 MTAP deleted IC50; for MTAP intact/deleted ratio: IC50 ratio HAP1 MTAP-intact / HAP1 MTAP-deleted, SDMA in-cell western. The procedure, abridged: as §1

The test system of test [6] is HAP1 MTAP-deleted cell line. The experiment in a line: Viability assay, MTAP-deleted cell line. To be noted: Homo sapiens, HAP1, viability assay, MTAP-deleted cell line; read-out: HAP1 MTAP deleted viability. The test is classed as cell-based. The text has this: Table 1 additionally indicates IC50 values in a viability assay for the MTAP-deleted cell line (column 10), indicating the effect of treatment with compound on cell survival.

T1 sequence (O14744 whole entry): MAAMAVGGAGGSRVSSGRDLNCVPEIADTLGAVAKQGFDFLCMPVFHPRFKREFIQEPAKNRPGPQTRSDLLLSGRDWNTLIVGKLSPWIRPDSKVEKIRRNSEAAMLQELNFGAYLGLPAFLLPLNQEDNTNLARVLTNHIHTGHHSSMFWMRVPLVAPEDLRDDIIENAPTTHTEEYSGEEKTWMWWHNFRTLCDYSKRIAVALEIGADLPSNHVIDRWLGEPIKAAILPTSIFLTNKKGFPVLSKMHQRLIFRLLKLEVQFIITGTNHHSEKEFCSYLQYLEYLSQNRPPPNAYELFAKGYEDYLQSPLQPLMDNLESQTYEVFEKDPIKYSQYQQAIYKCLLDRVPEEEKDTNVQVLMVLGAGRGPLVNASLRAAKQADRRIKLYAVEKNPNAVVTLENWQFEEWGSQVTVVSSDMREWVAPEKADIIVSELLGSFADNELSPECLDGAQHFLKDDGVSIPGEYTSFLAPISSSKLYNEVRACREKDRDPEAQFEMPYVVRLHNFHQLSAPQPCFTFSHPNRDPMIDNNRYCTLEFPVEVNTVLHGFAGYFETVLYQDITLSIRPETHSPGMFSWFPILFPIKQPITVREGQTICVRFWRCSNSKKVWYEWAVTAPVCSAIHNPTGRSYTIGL
T1 sequence (Q9BQA1 whole entry partner): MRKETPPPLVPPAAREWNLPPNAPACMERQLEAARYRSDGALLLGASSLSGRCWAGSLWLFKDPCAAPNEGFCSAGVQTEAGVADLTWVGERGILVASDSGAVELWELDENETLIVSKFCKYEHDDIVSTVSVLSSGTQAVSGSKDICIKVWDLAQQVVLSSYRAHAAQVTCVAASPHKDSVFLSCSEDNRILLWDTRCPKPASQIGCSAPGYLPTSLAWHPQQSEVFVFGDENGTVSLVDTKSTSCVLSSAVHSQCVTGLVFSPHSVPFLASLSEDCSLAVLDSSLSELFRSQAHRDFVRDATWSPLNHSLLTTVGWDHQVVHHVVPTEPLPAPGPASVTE

Regarding `COc1ncc(NC(=O)C(=O)N2C[C@H](C)CC[C@H]2c2cccc3[nH]ncc23)cc1C(N)=O` (single isomer, unassigned) [Compound 926], the IC50 was above 500 nM in test [1]; above 500 nM in test [2]; above 500 nM in test [3]; above 1000 nM in test [4]; above 1000 nM in test [5]; above 10000 nM in test [6]. Also, in test [5], the MTAP intact/deleted ratio entry is listed as “C (an IC50 ratio of less than 3 fold)”.
As for `CC(=O)Nc1ccc([C@@H]2CC[C@@H](C)CN2C(=O)C(=O)Nc2cnc(N)c(C)c2)cn1` (single isomer, unassigned) [Compound 927], the IC50 in test [1] was above 500 nM; in test [2] it was above 500 nM; in test [3], above 500 nM; in test [4], above 1000 nM; in test [5], above 1000 nM; in test [6], above 10000 nM. In addition, the MTAP intact/deleted ratio result in test [5] was “C (an IC50 ratio of less than 3 fold)”.
`CCc1cc(NC(=O)C(=O)N2C[C@@H](C)CC[C@@H]2c2cccc3[nH]ncc23)cnc1N` (single isomer, unassigned) [Compound 928]: the IC50 in test [1] was 50 to 500 nM; in test [2] it was below 50 nM; in test [3], below 50 nM; in test [4] it was above 1000 nM; in test [5] it was below 100 nM; in test [6], below 1000 nM. The MTAP intact/deleted ratio entry in test [5] is reported as “A (an IC50 ratio greater than or equal to 10 fold)”.
Take `CCc1cc(NC(=O)C(=O)N2C[C@@H](C)CC[C@@H]2c2ccc3cnccc3c2)cnc1N` (single isomer, unassigned) [Compound 929]: the IC50 in test [1] is above 500 nM; in test [2], above 500 nM; in test [3], above 500 nM; in test [4] it was above 1000 nM; in test [5], 100 to 1000 nM; in test [6] it was 1000 to 10000 nM. Besides, the MTAP intact/deleted ratio result in test [5] is listed as “A (an IC50 ratio greater than or equal to 10 fold)”.
For `COc1ncc(NC(=O)C(=O)N2C[C@H](C)CC[C@H]2c2ccc(NC(C)=O)nc2)cc1C(N)=O` (single isomer, unassigned) [Compound 930], the IC50 in test [1] is 50 to 500 nM; in test [2], 50 to 500 nM; in test [3], below 50 nM; in test [4] it was above 1000 nM; in test [5], below 100 nM; in test [6], 1000 to 10000 nM. Also, in test [5], the MTAP intact/deleted ratio entry is “A (an IC50 ratio greater than or equal to 10 fold)”.
For the compound `CCc1cc(NC(=O)C(=O)N2C[C@H](C)CC[C@H]2c2ccn(-c3cc[nH]n3)n2)cnc1N` (single isomer, unassigned) [Compound 931], the IC50 in test [1] is 50 to 500 nM; in test [2], 50 to 500 nM; in test [3] it was below 50 nM; in test [4], 100 to 1000 nM; in test [5], below 100 nM; in test [6] it was below 1000 nM. The MTAP intact/deleted ratio entry in test [5] is recorded as “A (an IC50 ratio greater than or equal to 10 fold)”.
On to `COc1ncc(NC(=O)C(=O)N2C[C@H](C)CC[C@H]2c2ccc3cnccc3c2)cc1C(N)=O` (single isomer, unassigned) [Compound 933], for which the IC50 in test [1] was above 500 nM; in test [2], above 500 nM; in test [3] it was above 500 nM; in test [4] it was above 1000 nM; in test [5], above 1000 nM; in test [6], above 10000 nM. Also, the MTAP intact/deleted ratio entry in test [5] is listed as “B (an IC50 ratio greater than or equal to 3 fold but lower than 10 fold)”.
Turning to `CC(=O)Nc1ccc([C@@H]2CC[C@@H](C)CN2C(=O)C(=O)Nc2cncc(C(N)=O)c2)cn1` (single isomer, unassigned) [Compound 934], the IC50 in test [1] was 50 to 500 nM; in test [2], 50 to 500 nM; in test [3], below 50 nM; in test [4] it was above 1000 nM; in test [5] it was 100 to 1000 nM; in test [6], above 10000 nM. Further, in test [5], the MTAP intact/deleted ratio result is on record as “A (an IC50 ratio greater than or equal to 10 fold)”.
As for `CCc1cc(NC(=O)C(=O)N2C[C@H](C)C(F)(F)C[C@H]2c2ccc(C)nc2)cnc1N` (single isomer, unassigned) [Compound 935], the IC50 is above 500 nM in test [1]; above 500 nM in test [2]; above 500 nM in test [3]; above 1000 nM in test [4]; above 1000 nM in test [5]; above 10000 nM in test [6]. The MTAP intact/deleted ratio result in test [5] is listed as “C (an IC50 ratio of less than 3 fold)”.
Turning to `COc1ncc(NC(=O)C(=O)N2C[C@H](C)C(F)(F)C[C@H]2c2ccc(C)nc2)cc1C(N)=O` (single isomer, unassigned) [Compound 936], the IC50 in test [1] was above 500 nM; in test [2], above 500 nM; in test [3] it was above 500 nM; in test [4], above 1000 nM; in test [5], above 1000 nM; in test [6] it was above 10000 nM. Further, in test [5], the MTAP intact/deleted ratio result was “C (an IC50 ratio of less than 3 fold)”.
As to `Cc1cc(NC(=O)C(=O)N2C[C@@H](C)CC[C@@H]2c2cn[nH]c2)cnc1N` (single isomer, unassigned) [Compound 941], the IC50 in test [1] is 50 to 500 nM; in test [2], below 50 nM; in test [3] it was below 50 nM; in test [4], 100 to 1000 nM; in test [5], below 100 nM; in test [6] it was 1000 to 10000 nM. Moreover, the MTAP intact/deleted ratio entry in test [5] is “B (an IC50 ratio greater than or equal to 3 fold but lower than 10 fold)”.
On to `C[C@H]1CC[C@H](c2cn[nH]c2)N(C(=O)C(=O)Nc2cncc(C(N)=O)c2)C1` (single isomer, unassigned) [Compound 942], for which the IC50 in test [1] is 50 to 500 nM; in test [2] it was 50 to 500 nM; in test [3], below 50 nM; in test [4], above 1000 nM; in test [5] it was 100 to 1000 nM; in test [6], above 10000 nM. Besides, the MTAP intact/deleted ratio entry in test [5] is reported as “A (an IC50 ratio greater than or equal to 10 fold)”.
Take `C[C@@H]1CC[C@@H](c2cc3cn[nH]c3s2)N(C(=O)C(=O)Nc2cncc(C(N)=O)c2)C1` (single isomer, unassigned) [Compound 943, 5-(2-(5-methyl-2-(1H-thieno[2,3-c]pyrazol-5-yl)piperidin-1-yl)-2-oxoacetamido)nicotinamide]: the IC50 is 50 to 500 nM in test [1]; below 50 nM in test [2]; below 50 nM in test [3]; 100 to 1000 nM in test [4]; below 100 nM in test [5]; below 1000 nM in test [6]. Moreover, the MTAP intact/deleted ratio entry in test [5] was “A (an IC50 ratio greater than or equal to 10 fold)”.
For `Cc1ccc([C@@H]2CC(F)(F)[C@@H](C)CN2C(=O)C(=O)Nc2cnc(N)c(C)c2)cn1` (single isomer, unassigned) [Compound 944], the IC50 was above 500 nM in test [1]; above 500 nM in test [2]; above 500 nM in test [3]; above 1000 nM in test [4]; above 1000 nM in test [5]; above 10000 nM in test [6]. Moreover, the MTAP intact/deleted ratio entry in test [5] is listed as “C (an IC50 ratio of less than 3 fold)”.
For `COc1ncc(NC(=O)C(=O)N2C[C@@H](C)CC[C@@H]2c2cc(Cl)cc(Cl)c2)cc1C(N)=O` (single isomer, unassigned) [Compound 945], the IC50 was 50 to 500 nM in test [1]; 50 to 500 nM in test [2]; below 50 nM in test [3]; above 1000 nM in test [4]; below 100 nM in test [5]; 1000 to 10000 nM in test [6]. Further, the MTAP intact/deleted ratio result in test [5] was “A (an IC50 ratio greater than or equal to 10 fold)”.
`Cc1ccc([C@@H]2CC(F)(F)[C@@H](C)CN2C(=O)C(=O)Nc2cncc(C(N)=O)c2)cn1` (single isomer, unassigned) [Compound 946]: the IC50 in test [1] is above 500 nM; in test [2], above 500 nM; in test [3], above 500 nM; in test [4], above 1000 nM; in test [5], above 1000 nM; in test [6], above 10000 nM. Besides, the MTAP intact/deleted ratio entry in test [5] is recorded as “B (an IC50 ratio greater than or equal to 3 fold but lower than 10 fold)”.
For `Cc1nc2cc([C@H]3CC[C@H](C)CN3C(=O)C(=O)Nc3cnc(N)c(C)c3)ccc2[nH]1` (single isomer, unassigned) [Compound 947], the IC50 was 50 to 500 nM in test [1]; 50 to 500 nM in test [2]; below 50 nM in test [3]; 100 to 1000 nM in test [4]; below 100 nM in test [5]; below 1000 nM in test [6]. Further, in test [5], the MTAP intact/deleted ratio result was “A (an IC50 ratio greater than or equal to 10 fold)”.
Take `Cc1cc(NC(=O)C(=O)N2C[C@H](C)CC[C@H]2c2ccc3[nH]nc(N)c3c2)cnc1C` (single isomer, unassigned) [Compound 948]: the IC50 in test [1] was 50 to 500 nM; in test [2], 50 to 500 nM; in test [3], below 50 nM; in test [4], above 1000 nM; in test [5], below 100 nM; in test [6] it was below 1000 nM. The MTAP intact/deleted ratio result in test [5] is “A (an IC50 ratio greater than or equal to 10 fold)”.
